Assay results as given in patent US20060106026A1, “4-(4-methylpiperazin-1-ylmethyl)-n-[4-pyridin-3-yl)pyrimidin-2-ylamino)phenyl]-benzamide for treating anaplastic thyroid cancer” (priority 2002, published 2006).
Like-named read-outs stand apart in the source and are kept apart here.

Tests used:
ARO = tested on: ARO
Text: (§1) Human anaplastic thyroid carcinoma cell lines FRO and ARO were used with respectively, undetectable or mutant p53 in codon 273 (Fagin et al., J. Clin. Invest. 1993, 91:179-184). Human papillary carcinoma cell line NPA has p53 mutations in codons 223 and 226 (Fagin et al., J. Clin. Invest. 1993, 91:179-184), while TPC-1 and KTC-1 papillary thyroid carcinoma cell lines are wild type for p53 (Kurebayashi et al., J. Clin. Endocrinol. Metab. 2000, 85:2889-96). Stable transfection with a vector expressing wild type p53 was used to produce the 1F3 cell line from FRO cells (Zeki et al., Int. J. Cancer, 1998, 75:391-5). […] Primary human thyroid cell cultures were established as described previously (Kawabe et al., J. Clin. Endocrinol. Metab., 1989, 68:1174-83) and maintained in a 2:1 mixture of F12 Nutrient Mixture and DEM, supplemented with 3% fetal bovine serum and penicillin-streptomycin (all reagents from Invitrogen Life Technologies, Paisley, UK).
(§2) The kinetics of cell growth were examined using a cytometer as follows: cells were seeded at a density of 0.5 or 0.1×10^5 cells per well in 12-well culture plates. […] Both experiments were performed at least three times.

FRO = tested on: FRO
Text: as §1, §2

KTC-1 = details: read-out: IC50 values, mean (50% reduction in cell growth); KTC-1, 72 h of incubation, n=3
Text: as §1, §2

NPA = tested on: NPA
Text: as §1, §2

TPC-1 = details: read-out: IC50 values, mean (50% reduction in cell growth); TPC-1, 72 h of incubation, n=3
Text: as §1, §2

primary thyrocytes (PT) = details: read-out: IC50 values, mean (50% reduction in cell growth), 72 h of incubation, n=3
Text: as §1, §2

[1] = read-out: IC50 (cytostatic effect)
[2] = read-out: IC50 values, mean (50% reduction in cell growth), 72 h of incubation, n=3

Work on CS(=O)(=O)O.Cc1ccc(NC(=O)c2ccc(CN3CCN(C)CC3)cc2)cc1Nc1nccc(-c2cccnc2)n1 [SALT I, 4-[(4-methyl-1-piperazin-1-ylmethyl)-N-[4-methyl-3-[[4-(3-pyridinyl)-2-pyrimidinyl]amino]phenyl]benzamide methanesulfonate] yielded an IC50 (ARO; [1]) of 5.9 µM, an IC50 (ARO; [2]) of 8.1 µM and an IC50 (FRO; [1]) of 7.8 µM. It also gave an IC50 (FRO; [2]) of 6.4 µM, an IC50 (KTC-1) of 22.6 µM and an IC50 (NPA; read-out: IC50, as stated in the discussion, NPA cells) of 16 µM. It also gave an IC50 (NPA; read-out: IC50 values, mean (50% reduction in cell growth), NPA, 72 h of incubation, n=3) of 15.6 µM, an IC50 (TPC-1) of 29.5 µM and an IC50 (primary thyrocytes (PT)) of 24.7 µM.
